{"source": "patent US9113649B2", "about": "“Food additive comprising an amidase for detoxifying ochratoxin” (DuPont Nutrition Biosciences ApS, priority 2010, dated 2015)", "molecular_target": "Aspergillus niger amidase 2 sig (full length 480 aa, intracellular fraction, SEQ ID NO: 1) (Aspergillus niger, UniProt A2R2V4)", "sequence (A2R2V4 other isoform, or with tags, fused parts or gaps)": "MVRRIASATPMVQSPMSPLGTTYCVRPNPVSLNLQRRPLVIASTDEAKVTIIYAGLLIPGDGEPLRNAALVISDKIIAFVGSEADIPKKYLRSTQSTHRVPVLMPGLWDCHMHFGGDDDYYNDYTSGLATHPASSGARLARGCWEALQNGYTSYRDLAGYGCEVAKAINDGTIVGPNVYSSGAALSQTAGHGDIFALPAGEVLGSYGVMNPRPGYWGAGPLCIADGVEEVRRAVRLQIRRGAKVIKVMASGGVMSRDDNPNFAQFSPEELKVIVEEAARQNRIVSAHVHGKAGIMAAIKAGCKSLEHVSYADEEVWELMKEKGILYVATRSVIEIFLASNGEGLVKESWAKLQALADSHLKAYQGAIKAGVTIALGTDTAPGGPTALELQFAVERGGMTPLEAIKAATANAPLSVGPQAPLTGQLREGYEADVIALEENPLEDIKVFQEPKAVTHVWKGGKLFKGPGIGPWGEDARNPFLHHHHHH", "details": "pH 7", "procedure": "The reaction contained 60 μl mops-NaOH (0.2M, pH7.0), 20 mM CaCl2, 20 mM EDTA, amidase 2 sig (0.46 μg protein) extracted from A. niger cell harboring the amidase gene, 2 μl 25 μg/ml OTA and water to a final volume of 120 μl. The reaction was performed at 37° C. for 30 min and stopped by adding 150 μl acetonitrile containing 0.2% acetic acid. OTA and its product OT-alpha (=ODα) were analyzed on RP-HPLC on C18 column with an injection of 5 μl. Positive control (PC) contained no additives other than the buffer the amidase and OTA. Blank contained only buffer and OTA."}
{"smiles": "O=C(O)CN(CCN(CC(=O)O)CC(=O)O)CC(=O)O", "note": "[EDTA]", "values": [{"measurement": "inhibition of amidase 2 sig (OTA degradation)", "result": "no inhibition"}]}
